What was measured:
[1] = system: Salmonella typhimurium tester strain TA98; test: Modified Ames test with Aroclor 1254-induced rat liver S9 on DMSO extract (specific mutagenic activity, revertants); format: cell-based
Protocol: (§1) The hydrocarbon mixture to be assayed is extracted with an equal volume of DMSO five times, and the extracts are combined. The combined extract, which serves as surrogate for the hydrocarbon itself, is assayed using Salmonella typhimurium tester strain TA98 together with Aroclor 1254-induced rat liver S9. Prior to use, the rat liver S9 homogenate, obtained from Litton Bionetics, Kensington, Md., was stored at -80° C., and thawed on ice for 4 hours prior to use.
The assay is conducted by first introducing into a series of sterile capped culture tubes up to about eight different doses of the combined extract. The doses, usually in the range of 10 to 75 microliters, are selected to delimit the linear portion of the doseresponse curve. Duplicate or triplicate tubes are prepared for each dose level. […] Plates are incubated inverted at 37° C. in the dark and revertant colonies are counted 48 hours later.
Spontaneous reversion rates (47±8.5) and negative (solvent) control rates (47±8.5) were determined for all tests. […]
Specific mutagenic activity is assessed from the slope of the linear portion of the dose response curve that is obtained, and may be reported as revertants per μl of extract. […]

[2] = system: Salmonella typhimurium tester strain TA98; test: Modified Ames test with induced hamster liver S9 (TA98 revertants/plate); format: cell-based; settings: 2 ug per plate
Protocol: as §1
The assay is conducted by first introducing into a series of sterile capped culture tubes up to about eight different doses of the combined extract. The doses, usually in the range of 10 to 75 microliters, are selected to delimit the linear portion of the doseresponse curve. Duplicate or triplicate tubes are prepared for each dose level. This is followed by 0.5 ml S9 mix containing 400 μl S9, 8 μM MgCl2, 33 μM KCl, 5 μM glucose-6-phosphate, 4 μM NADP and 100 μM sodium phosphate (pH 7.4), and 0.1 ml Salmonella typhimurium broth culture (1×10^9 cells/ml). The cultures are incubated at 37° C. with agitation for 20 minutes, following which top agar (0.6% agar, 0.5% NaCl, 0.5 mM histidine-biotin) is added. The tubes are vortexed to ensure adequate mixing and the contents overlaid on 30 ml Vogel-Bonner minimal media plates. Plates are incubated inverted at 37° C. in the dark and revertant colonies are counted 48 hours later. […]

Which results are given for Nc1ccc2cc3ccccc3cc2c1 [2-aminoanthracene]?
TA98 Revertants/Plate, 400 ul Rat S9 ([1]; 2 ug per plate, 400 ul rat S9): 313 Revertants/Plate; revertants (positive control) ([1]; 2 μg/plate, TA98, rat liver S9): 441±285 revertants; TA98 Revertants/Plate, 400 ul Hamster S9 ([2]; 400 ul hamster S9): 639 Revertants/Plate; TA98 Revertants/Plate, 400 ul Hamster S9 + 2xNADP ([2]; 400 ul hamster S9 + 2xNADP (8 mM)): 977 Revertants/Plate

Source: US4499187A, “Method for evaluating mutagenicity” (Mobil Oil Corporation, priority 1984, dated 1985)
